Converted amounts (≈) assume the structure as drawn.
test system: PC-3; test: Cytotoxicity against human PC3 cells with PTEN mutant after 72 hrs; assay type: functional, cell-based; details: PC-3, 72 h

| Structure (SMILES) | IC50 [nM] |
| --- | --- |
| CN(C)CCn1ccc2c(N3CCOCC3)nc(-c3ccc(NC(=O)Nc4cccnc4)cc3)nc21 | 137 |
| O=CCn1ccc2c(N3CCOCC3)nc(-c3ccc(NC(=O)Nc4ccncc4)cc3)nc21 | 639 |
| O=C(Nc1ccncc1)Nc1ccc(-c2nc(N3CCOCC3)c3ccn(CCO)c3n2)cc1 | 91 |
| O=C(Nc1ccncc1)Nc1ccc(-c2nc(N3CCOCC3)c3ccn(CCN4CCNCC4)c3n2)cc1 | 2330 |
| O=C(Nc1ccncc1)Nc1ccc(-c2nc(N3CCOCC3)c3ccn(CCN4CCCCC4)c3n2)cc1 | 634 |
| Oc1cccc(-c2nc(N3CCOCC3)c3[nH]cc(C4CCN(Cc5ccc(F)cc5)CC4)c3n2)c1 | 1650 |
| O=C(Nc1ccncc1)Nc1ccc(-c2nc(N3CCOCC3)c3cc[nH]c3n2)cc1 | 187 |
| OCc1cccc(-c2nc(N3CCOCC3)c3[nH]ccc3n2)c1 | 2080 |
| Oc1cccc(-c2nc(N3CCOCC3)c3[nH]ccc3n2)c1 | 1550 |
| CN(C)CCn1ccc2c(N3CCOCC3)nc(-c3ccc(NC(=O)Nc4ccccn4)cc3)nc21 | 882 |
| CN(C)Cc1c[nH]c2c(N3CCOCC3)nc(-c3cccc(CO)c3)nc12 | > 3160 |
| OCc1cccc(-c2nc(N3CCOCC3)c3[nH]cc(CN4CCCC4)c3n2)c1 | > 3160 |
| CN(C)CCNCCn1ccc2c(N3CCOCC3)nc(-c3ccc(NC(=O)Nc4ccncc4)cc3)nc21 | 1150 |
| CN(C)CCn1ccc2c(N3CCOCC3)nc(-c3ccc(NC(=O)Nc4ccc(F)cc4)cc3)nc21 | 189 |
| Oc1cccc(-c2nc(N3CCOCC3)c3cc[nH]c3n2)c1 | 580 |

test system: not listed separately; test: Solubility at pH 7.4; assay type: physicochemical; details: buffer

| solubility [µg/mL] | Structure (SMILES) |
| --- | --- |
| 52 (≈ 107 µM) | CN(C)CCn1ccc2c(N3CCOCC3)nc(-c3ccc(NC(=O)Nc4cccnc4)cc3)nc21 |
| 2 (≈ 4.37 µM) | O=CCn1ccc2c(N3CCOCC3)nc(-c3ccc(NC(=O)Nc4ccncc4)cc3)nc21 |
| 1 (≈ 2.18 µM) | O=C(Nc1ccncc1)Nc1ccc(-c2nc(N3CCOCC3)c3ccn(CCO)c3n2)cc1 |
| > 100 | O=C(Nc1ccncc1)Nc1ccc(-c2nc(N3CCOCC3)c3ccn(CCN4CCNCC4)c3n2)cc1 |
| 47 (≈ 89.2 µM) | O=C(Nc1ccncc1)Nc1ccc(-c2nc(N3CCOCC3)c3ccn(CCN4CCCCC4)c3n2)cc1 |
| 21 (≈ 43.2 µM) | CN(C)CCn1ccc2c(N3CCOCC3)nc(-c3ccc(NC(=O)Nc4ccccn4)cc3)nc21 |
| > 100 | CCNC(=O)Nc1ccc(-c2nc(N3CCOCC3)c3ccn(CCN(C)C)c3n2)cc1 |
| 58 (≈ 110 µM) | CN(C)CCNCCn1ccc2c(N3CCOCC3)nc(-c3ccc(NC(=O)Nc4ccncc4)cc3)nc21 |
| 2 (≈ 6.75 µM) | Oc1cccc(-c2nc(N3CCOCC3)c3cc[nH]c3n2)c1 |

target: Serine/threonine-protein kinase mTOR (Homo sapiens, UniProt P42345); test: Inhibition of mTOR by DELFIA; details: not given

| IC50 [nM] | Structure (SMILES) |
| --- | --- |
| 3 | CN(C)CCn1ccc2c(N3CCOCC3)nc(-c3ccc(NC(=O)Nc4cccnc4)cc3)nc21 |
| 8 | CN(C)CCn1ccc2c(N3CCOCC3)nc(-c3ccc(NC(=O)Nc4ccc(F)cc4)cc3)nc21 |

test system: not listed separately; test: in vitro; details: rat, liver microsomes

| half-life [min] | Structure (SMILES) |
| --- | --- |
| 2 | OCc1cccc(-c2nc(N3CCOCC3)c3ncn(C4CCN(Cc5ccccc5)CC4)c3n2)c1 |
| 9 | CN(C)CCn1ccc2c(N3CCOCC3)nc(-c3ccc(NC(=O)Nc4cccnc4)cc3)nc21 |
| 22 | O=C(Nc1ccncc1)Nc1ccc(-c2nc(N3CCOCC3)c3ccn(CCO)c3n2)cc1 |
| 4 | O=C(Nc1ccncc1)Nc1ccc(-c2nc(N3CCOCC3)c3ccn(CCN4CCNCC4)c3n2)cc1 |
| 4 | O=C(Nc1ccncc1)Nc1ccc(-c2nc(N3CCOCC3)c3ccn(CCN4CCCCC4)c3n2)cc1 |
| 5 | CN(C)CCn1ccc2c(N3CCOCC3)nc(-c3ccc(NC(=O)Nc4ccccn4)cc3)nc21 |
| 8 | CCNC(=O)Nc1ccc(-c2nc(N3CCOCC3)c3ccn(CCN(C)C)c3n2)cc1 |
| 8 | CN(C)CCNCCn1ccc2c(N3CCOCC3)nc(-c3ccc(NC(=O)Nc4ccncc4)cc3)nc21 |

target: Phosphatidylinositol 4,5-bisphosphate 3-kinase catalytic subunit alpha isoform (Homo sapiens, UniProt P42336); test: not given; details: not given
Sequence (P42336 whole entry, canonical isoform): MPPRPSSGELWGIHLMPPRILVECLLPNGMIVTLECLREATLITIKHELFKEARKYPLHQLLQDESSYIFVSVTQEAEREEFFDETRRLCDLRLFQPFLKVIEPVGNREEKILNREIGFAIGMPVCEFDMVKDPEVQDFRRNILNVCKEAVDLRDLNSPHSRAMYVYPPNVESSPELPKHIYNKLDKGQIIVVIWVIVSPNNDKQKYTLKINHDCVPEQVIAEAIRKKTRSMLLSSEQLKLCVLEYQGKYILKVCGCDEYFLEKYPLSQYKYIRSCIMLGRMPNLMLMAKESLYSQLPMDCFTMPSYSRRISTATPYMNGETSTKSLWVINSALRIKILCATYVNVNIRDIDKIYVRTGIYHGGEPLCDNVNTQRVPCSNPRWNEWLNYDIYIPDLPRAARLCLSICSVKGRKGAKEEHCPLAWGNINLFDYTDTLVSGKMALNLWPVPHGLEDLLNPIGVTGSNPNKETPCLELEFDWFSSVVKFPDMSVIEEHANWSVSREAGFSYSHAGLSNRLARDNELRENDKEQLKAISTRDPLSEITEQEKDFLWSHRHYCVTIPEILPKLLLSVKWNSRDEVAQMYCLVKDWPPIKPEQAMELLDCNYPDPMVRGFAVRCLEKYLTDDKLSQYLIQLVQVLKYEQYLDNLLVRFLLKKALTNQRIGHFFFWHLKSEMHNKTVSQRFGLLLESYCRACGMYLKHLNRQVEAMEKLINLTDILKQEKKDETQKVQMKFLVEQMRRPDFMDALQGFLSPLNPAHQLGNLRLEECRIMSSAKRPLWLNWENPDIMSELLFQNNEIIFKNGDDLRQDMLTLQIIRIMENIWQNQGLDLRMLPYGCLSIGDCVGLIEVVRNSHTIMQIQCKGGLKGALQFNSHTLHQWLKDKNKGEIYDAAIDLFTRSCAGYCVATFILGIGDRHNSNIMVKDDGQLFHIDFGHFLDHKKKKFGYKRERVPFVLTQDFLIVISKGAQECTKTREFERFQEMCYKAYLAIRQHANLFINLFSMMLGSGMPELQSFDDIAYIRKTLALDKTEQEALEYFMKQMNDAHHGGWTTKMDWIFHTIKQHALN

| IC50 [nM] | Structure (SMILES) |
| --- | --- |
| 5 | O=C(Nc1ccncc1)Nc1ccc(-c2nc(N3CCOCC3)c3ccn(CCO)c3n2)cc1 |
